Test results taken from article PMC12196476, “New Nitrogen-, Oxygen-, and Sulfur-Containing Heterocyclic Compounds as Anti-Colon Cancer Agents: Synthesis, Multitargeted Evaluations, Molecular Docking Simulations and ADMET Predictions” (Pharmaceuticals, 2025).

How the values were obtained:
[1] = target: PDK-1 (Homo sapiens, UniProt Q15118); experiment: In vitro PDK-1 inhibition assay (Kinase-Glo luminescent kinase kit); assay type: biochemical
[2] = target: recombinant human LDHA protein (Homo sapiens, UniProt P00338); experiment: In vitro LDHA inhibitory assay (NADH consumption); assay type: biochemical
[3] = tested on: Bax, Bcl-2 and Casp-3 genes expression in LoVo cells; experiment: qRT-PCR of Bax, Bcl-2 and Casp-3 gene expression, LoVo; assay type: cell-based, human; conditions: 30 µg/mL, 48 h
Experimental: (§1) To investigate molecular events downstream of ROS generation, we evaluated mRNA expression levels of key regulators of mitochondrial apoptosis—Bax and Bcl-2—using qRT-PCR. […] As a result, the Bax/Bcl-2 ratios were calculated to be 12.63 in LoVo cells and 8.71 in HCT-116 cells, reflecting a pronounced pro-apoptotic shift. This alteration in the Bax/Bcl-2 ratio strongly supports the activation of the mitochondrial apoptotic pathway.
(§2) To confirm activation of the execution phase of apoptosis, Casp-3 mRNA levels were evaluated by qRT-PCR.
(§3) The expression levels of these genes were determined using a quantitative real-time PCR technique. […]
(§4) S3.2.9. Quantification of the Expression Levels of Bax, Bcl-2 and Caspase-3 Genes
(§5) Human colon cancer cell lines (HCT-116 and LoVo) were cultured for 24 h in a 25 mL flask at
(§6) a density of 1 * 10^6 cells/flask as described in section S3.2.4. Cells were treated with 30 µg/mL
(§7) of compound 3d in 2 mL of fresh medium containing 1% FBS, or with 0.25 % DMSO as a
(§8) negative control, for 48 h. Afterwards, cells were washed with ice-cold phosphate-buffered
(§9) saline (PBS) and adherent cells were detached using trypsin solution.
(§10) Table S7 lists primers amplifying 100-200 bp of Bax, Bcl-2 and Caspase-3 genes. These primers
(§11) were designed using primer blast software (https://www.ncbi.nlm.nih.gov/tools/primer-
(§12) Table S7. Primer sequences for Bax, Bcl-2, Caspase-3, and GAPDH (control)
(§13) Gene Primer sequence (5’ to 3’)
(§14) Bcl-2 F 5’-[…] -3’,
(§15) Caspase 3 F 5’- […]-3’,
(§16) GAPDH F 5’- […]-3’
(§17) • Reverse-Transcription PCR (RT-PCR)
(§18) The total RNA was extracted from untreated and treated cells using the RNeasy Mini Kit
(§19) (Qiagen, DE). A Nanodrop 8000 spectrophotometer (Thermo Fisher Scientific, USA) was
(§20) used to check the RNA purity and quality. The Hyperscript Kit (GeneAll, KR) and random
(§21) hexamers (GeneAll, KR) were used as described in the manufacturer’s protocol to reverse-
(§22) transcript 1µg of RNA from each sample into cDNA.
(§23) • Quantitative real-time PCR
(§24) The mRNA expression of Bax, Bcl-2, and Caspase-3 were measured using QuantStudio
(§25) 7Flex Detection System (Applied Biosystems, USA). The iScript One-Step RT-PCR Kit with
(§26) SYBR Green (Cat no: 170-8892; Bio-Rad, CA, USA) was used to carry out the reactions for
(§27) the synthesis of cDNA. Each cDNA sample (5 µl) was added in a 20 µL PCR mixture

[4] = tested on: Bax, Bcl-2 and Casp-3 genes expression in HCT-116 cells; experiment: qRT-PCR of Bax, Bcl-2 and Casp-3 gene expression, HCT-116; assay type: cell-based, human; conditions: 30 µg/mL, 48 h
Experimental: as §1, §2, §3, §4, §5, §6, §7, §8, §9, §10, §11, §12, §13, §14, §15, §16, §17, §18, §19, §20, §21, §22, §23, §24, §25, §26, §27

[5] = relative to untreated controls, normalized to GAPDH

Sequence of PDK-1 (Q15118 29-436): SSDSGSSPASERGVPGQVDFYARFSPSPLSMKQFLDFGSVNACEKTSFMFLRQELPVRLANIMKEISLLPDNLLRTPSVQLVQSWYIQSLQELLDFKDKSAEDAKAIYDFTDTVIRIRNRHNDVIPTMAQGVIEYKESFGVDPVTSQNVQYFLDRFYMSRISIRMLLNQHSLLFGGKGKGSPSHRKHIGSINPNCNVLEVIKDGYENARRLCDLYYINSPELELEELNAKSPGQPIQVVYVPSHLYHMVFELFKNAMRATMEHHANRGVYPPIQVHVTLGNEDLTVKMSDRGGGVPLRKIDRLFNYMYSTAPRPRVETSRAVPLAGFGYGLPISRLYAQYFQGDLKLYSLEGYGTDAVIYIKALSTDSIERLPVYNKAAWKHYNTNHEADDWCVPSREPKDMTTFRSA

COc1cc(/C=N/c2ncnc3sc4c(c23)CCCC4)cc(OC)c1OC [Compound 3d, (E)-N-(5,6,7,8-Tetrahydrobenzo[4,5]thieno[2,3-d]pyrimidin-4-yl)-1-(3,4,5-trimethoxyphenyl)methanimine]
inhibition at 100 µg/mL ([1]; 100 µg/mL, three replicates, read-out: Mean Inhibition Percent ± SD, PDK-1): 41.8 ± 3.39%
IC50 ([1]; three independent experiments, read-out: Mean IC50 µM ± SD, PDK-1): 305 ± 11.1 µM
inhibition at 100 µg/mL ([2]; 100 µg/mL, three replicates, read-out: Mean Inhibition Percent ± SD, LDHA): 85.9 ± 2.97%
IC50 ([2]; three independent experiments, read-out: Mean IC50 µM ± SD, LDHA): 149 ± 7.93 µM
Bax/Bcl-2 ratio, LoVo cells [3]: 12.63
Bax mRNA expression, fold of control (LoVo) [3, 5]: 3.03 ± 0.41 fold
Bcl-2 mRNA expression, fold of control (LoVo) [3, 5]: 0.24 ± 0.03 fold
Casp-3 mRNA expression, fold of control (LoVo) [3, 5]: 5.35 ± 0.33 fold
Bax/Bcl-2 ratio, HCT-116 cells [4]: 8.71
Bax mRNA expression, fold of control (HCT-116) [4, 5]: 3.57 ± 0.18 fold
Bcl-2 mRNA expression, fold of control (HCT-116) [4, 5]: 0.41 ± 0.04 fold
Casp-3 mRNA expression, fold of control (HCT-116) [4, 5]: 4.50 ± 0.40 fold
